In PMC12337661, “PIEZO1 mechanical insensitivity in generalized lymphatic dysplasia with the potential for pharmacological rescue” (iScience, 2025):

Target: T1, I2286T mPIEZO1 (Mus musculus, UniProt E2JF22, I2286T)
T1 construct: expressed in transfected cells
Experiment: Intracellular Ca2+ measurement (fura-2), T-REx-293 cells stably transfected
Type: cell-based

T1 sequence (E2JF22 whole entry I2286T): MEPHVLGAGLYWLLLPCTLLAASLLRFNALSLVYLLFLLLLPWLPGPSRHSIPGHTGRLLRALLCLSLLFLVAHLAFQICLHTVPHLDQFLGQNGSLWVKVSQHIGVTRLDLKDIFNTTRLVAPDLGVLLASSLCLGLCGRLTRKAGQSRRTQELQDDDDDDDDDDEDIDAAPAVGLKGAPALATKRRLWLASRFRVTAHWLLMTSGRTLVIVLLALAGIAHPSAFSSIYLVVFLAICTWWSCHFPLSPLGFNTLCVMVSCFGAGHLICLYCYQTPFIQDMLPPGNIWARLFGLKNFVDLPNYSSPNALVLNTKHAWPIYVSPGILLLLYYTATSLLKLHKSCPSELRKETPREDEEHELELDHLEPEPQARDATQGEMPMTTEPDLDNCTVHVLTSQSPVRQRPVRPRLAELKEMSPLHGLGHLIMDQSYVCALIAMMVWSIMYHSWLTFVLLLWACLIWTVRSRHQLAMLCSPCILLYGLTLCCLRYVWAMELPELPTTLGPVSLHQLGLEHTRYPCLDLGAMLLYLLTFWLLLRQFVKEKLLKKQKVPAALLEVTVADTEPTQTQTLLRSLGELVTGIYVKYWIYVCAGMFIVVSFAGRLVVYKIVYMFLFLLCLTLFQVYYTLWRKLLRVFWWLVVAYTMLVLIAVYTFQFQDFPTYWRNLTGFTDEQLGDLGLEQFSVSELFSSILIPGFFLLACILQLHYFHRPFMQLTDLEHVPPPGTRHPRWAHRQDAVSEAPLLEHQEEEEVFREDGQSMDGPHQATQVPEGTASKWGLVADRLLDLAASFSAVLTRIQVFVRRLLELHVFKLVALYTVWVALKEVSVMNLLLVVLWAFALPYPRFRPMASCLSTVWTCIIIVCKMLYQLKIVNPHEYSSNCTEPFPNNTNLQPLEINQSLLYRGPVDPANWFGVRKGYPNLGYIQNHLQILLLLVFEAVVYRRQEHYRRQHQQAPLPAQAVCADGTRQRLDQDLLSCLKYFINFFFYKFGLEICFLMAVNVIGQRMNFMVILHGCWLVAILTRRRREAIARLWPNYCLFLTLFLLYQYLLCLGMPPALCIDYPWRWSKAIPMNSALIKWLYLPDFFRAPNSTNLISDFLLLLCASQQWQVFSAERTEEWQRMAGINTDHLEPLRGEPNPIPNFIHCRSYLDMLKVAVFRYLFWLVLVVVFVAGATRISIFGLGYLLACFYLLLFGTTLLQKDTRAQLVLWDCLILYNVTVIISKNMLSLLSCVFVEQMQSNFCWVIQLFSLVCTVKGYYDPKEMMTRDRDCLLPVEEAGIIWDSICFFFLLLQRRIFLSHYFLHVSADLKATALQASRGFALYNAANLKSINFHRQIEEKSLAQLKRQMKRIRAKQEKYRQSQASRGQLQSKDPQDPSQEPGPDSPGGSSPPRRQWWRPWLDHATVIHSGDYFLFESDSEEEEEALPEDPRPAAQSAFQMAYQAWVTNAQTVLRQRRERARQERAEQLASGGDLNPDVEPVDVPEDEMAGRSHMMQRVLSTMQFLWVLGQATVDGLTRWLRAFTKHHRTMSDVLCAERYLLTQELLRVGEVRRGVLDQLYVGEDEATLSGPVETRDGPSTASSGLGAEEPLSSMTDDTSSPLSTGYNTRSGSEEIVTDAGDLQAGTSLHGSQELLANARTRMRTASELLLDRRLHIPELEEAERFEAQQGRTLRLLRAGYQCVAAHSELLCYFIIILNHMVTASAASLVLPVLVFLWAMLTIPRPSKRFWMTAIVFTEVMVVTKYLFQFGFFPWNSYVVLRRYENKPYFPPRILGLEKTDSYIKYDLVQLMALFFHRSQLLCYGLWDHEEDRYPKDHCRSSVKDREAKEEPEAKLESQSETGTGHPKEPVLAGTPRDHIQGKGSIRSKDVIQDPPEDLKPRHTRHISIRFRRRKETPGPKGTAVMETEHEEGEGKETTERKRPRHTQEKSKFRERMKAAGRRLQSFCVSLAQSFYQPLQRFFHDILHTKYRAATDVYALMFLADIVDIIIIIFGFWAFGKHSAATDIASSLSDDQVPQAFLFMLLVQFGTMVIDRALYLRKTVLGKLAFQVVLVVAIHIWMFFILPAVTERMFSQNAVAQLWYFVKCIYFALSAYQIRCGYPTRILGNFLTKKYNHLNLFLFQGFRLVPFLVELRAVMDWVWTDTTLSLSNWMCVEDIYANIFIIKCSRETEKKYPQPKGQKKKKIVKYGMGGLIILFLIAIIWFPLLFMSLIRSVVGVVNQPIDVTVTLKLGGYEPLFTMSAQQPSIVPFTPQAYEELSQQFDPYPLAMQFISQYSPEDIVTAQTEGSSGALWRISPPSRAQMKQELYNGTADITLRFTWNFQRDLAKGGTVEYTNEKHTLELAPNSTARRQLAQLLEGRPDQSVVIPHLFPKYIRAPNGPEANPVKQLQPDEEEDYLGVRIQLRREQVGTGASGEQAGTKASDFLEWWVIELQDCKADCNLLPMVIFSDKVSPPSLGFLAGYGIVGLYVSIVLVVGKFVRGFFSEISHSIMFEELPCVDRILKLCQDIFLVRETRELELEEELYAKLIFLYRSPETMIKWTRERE

## Clc1cccc(Cl)c1CSc1nnc(-c2cnccn2)s1 [Yoda1]
0.3 µM, time 0 s
  Mean (ΔFratio): 0.00284
0.3 µM, time 5 s
  Mean (ΔFratio): -0.01214
0.3 µM, time 10 s
  Mean (ΔFratio): -0.00475
0.3 µM, time 15 s
  Mean (ΔFratio): 0.0078
0.3 µM, time 20 s
  Mean (ΔFratio): 0.0053
0.3 µM, time 25 s
  Mean (ΔFratio): 9.46E-04
0.3 µM, time 30 s
  Mean (ΔFratio): -0.3226
0.3 µM, time 35 s
  Mean (ΔFratio): 0.06275
0.3 µM, time 40 s
  Mean (ΔFratio): 0.07886
0.3 µM, time 45 s
  Mean (ΔFratio): 0.1026
0.3 µM, time 50 s
  Mean (ΔFratio): 0.1196
0.3 µM, time 55 s
  Mean (ΔFratio): 0.1055
0.3 µM, time 60 s
  Mean (ΔFratio): 0.1268
0.3 µM, time 65 s
  Mean (ΔFratio): 0.1277
0.3 µM, time 70 s
  Mean (ΔFratio): 0.1132
0.3 µM, time 75 s
  Mean (ΔFratio): 0.108
0.3 µM, time 80 s
  Mean (ΔFratio): 0.1196
0.3 µM, time 85 s
  Mean (ΔFratio): 0.1097
0.3 µM, time 90 s
  Mean (ΔFratio): 0.1266
0.3 µM, time 95 s
  Mean (ΔFratio): 0.09696
0.3 µM, time 100 s
  Mean (ΔFratio): 0.1131
0.3 µM, time 105 s
  Mean (ΔFratio): 0.1125
0.3 µM, time 110 s
  Mean (ΔFratio): 0.1236
0.3 µM, time 115 s
  Mean (ΔFratio): 0.1032
0.3 µM, time 120 s
  Mean (ΔFratio): 0.1051
0.3 µM, time 125 s
  Mean (ΔFratio): 0.1128
0.3 µM, time 130 s
  Mean (ΔFratio): 0.1149
3 µM, time 0 s
  Mean (ΔFratio): 0.00514
3 µM, time 5 s
  Mean (ΔFratio): -0.00971
3 µM, time 10 s
  Mean (ΔFratio): -0.01128
3 µM, time 15 s
  Mean (ΔFratio): -0.00374
3 µM, time 20 s
  Mean (ΔFratio): 0.00352
3 µM, time 25 s
  Mean (ΔFratio): 0.01607
3 µM, time 30 s
  Mean (ΔFratio): -0.3514
3 µM, time 35 s
  Mean (ΔFratio): -7.87E-04
3 µM, time 40 s
  Mean (ΔFratio): 0.4454
3 µM, time 45 s
  Mean (ΔFratio): 0.684
3 µM, time 50 s
  Mean (ΔFratio): 0.8254
3 µM, time 55 s
  Mean (ΔFratio): 0.9146
3 µM, time 60 s
  Mean (ΔFratio): 1.017
3 µM, time 65 s
  Mean (ΔFratio): 0.992
3 µM, time 70 s
  Mean (ΔFratio): 1.046
3 µM, time 75 s
  Mean (ΔFratio): 1.071
3 µM, time 80 s
  Mean (ΔFratio): 1.067
3 µM, time 85 s
  Mean (ΔFratio): 1.06
3 µM, time 90 s
  Mean (ΔFratio): 1.0819
3 µM, time 95 s
  Mean (ΔFratio): 1.076
3 µM, time 100 s
  Mean (ΔFratio): 1.0617
3 µM, time 105 s
  Mean (ΔFratio): 1.0398
3 µM, time 110 s
  Mean (ΔFratio): 1.005
3 µM, time 115 s
  Mean (ΔFratio): 1.038
3 µM, time 120 s
  Mean (ΔFratio): 1.008
3 µM, time 125 s
  Mean (ΔFratio): 0.9978
3 µM, time 130 s
  Mean (ΔFratio): 0.9846
1.5 min exposure, 0.03 µM
  Mean normalise fluorescence: -0.00469
1.5 min exposure, 0.1 µM
  Mean normalise fluorescence: -0.00217
1.5 min exposure, 0.3 µM
  Mean normalise fluorescence: 0.03506
1.5 min exposure, 1 µM
  Mean normalise fluorescence: 0.1805
1.5 min exposure, 3 µM
  Mean normalise fluorescence: 0.4613
1.5 min exposure, 5 µM
  Mean normalise fluorescence: 0.7197
1.5 min exposure, 10 µM
  Mean normalise fluorescence: 1
20 min exposure, normalized to 3 μM, 0.03 µM
  Mean normalise fluorescence: 0.09646
20 min exposure, normalized to 3 μM, 0.1 µM
  Mean normalise fluorescence: 0.04298
20 min exposure, normalized to 3 μM, 0.3 µM
  Mean normalise fluorescence: 0.2627
20 min exposure, normalized to 3 μM, 1 µM
  Mean normalise fluorescence: 0.9872
20 min exposure, normalized to 3 μM, 3 µM
  Mean normalise fluorescence: 1
20 min exposure, normalized to 3 μM, 10 µM
  Mean normalise fluorescence: 0.9221
Long (20 min) exposure, normalized to 3 μM Yoda1
  EC50: 0.41 µM
Versus WT
  Effect on mPIEZO1 channel function: loss of MA: LOF; reduced Y1 potency
